For series [1], the target named is T1, tau (Homo sapiens, UniProt P10636, P618L).
T1 construct: BiFC fluorescent-protein fragments (two complementary halves); from tissue; host or cells: brain of TauP301L-BiFC transgenic mice
Kind of series: Total tau immunoblot of RIPA-insoluble brain lysates. The series is classed as in vivo. The following applies: TauP301L-BiFC mice, compared to vehicle, numbers not readable (formula image). The protocol:
[2] To verify the tau pathology inhibitory efficacy of the drug confirmed through brain tissue imaging via brain lysate immunoblot, brain lysates were separated and purified, and immunoblot using tau antibody was performed in soluble and insoluble fractions. The brain was weighed, and RIPA lysis buffer containing the corresponding dose of protease and phosphatase inhibitors was added to the brain tissue. The tissue was then disrupted using a homogenizer and incubated at 4°C for 2 hours, and then centrifuged at 13,200 rpm at 4°C for 20 minutes. After centrifugation, the supernatant was collected as a RIPA-soluble fraction and stored at -80°C. To prepare the RIPA-insoluble fraction, the remaining pellet was washed once with RIPA lysis buffer containing 1 M sucrose, and then 2% SDS solution (1 mL per 1 g of tissue) was added and incubated at room temperature for 1 hour. Thereafter, the mixture was centrifuged at 13,200 rpm for 1 minute at room temperature, and the supernatant was collected as a RIPA-insoluble fraction and stored at -80°C.
For tau immunoblot analysis, 20 µg of brain tissue RIPA-soluble sample was separated on a 10% SDS-PAGE gel and transferred to a PVDF membrane, and RIPA-insoluble samples were diluted 10-fold in 2% SDS solution and 20 µL of each sample was loaded on an SDS-PAGE gel. The total tau and phosphorylated tau levels were detected by Tau5, which is an anti-tau antibody, and pS199 and pS396, which are anti-phosphorylated tau antibodies. ImageJ software (NIH) was used to quantify band intensity.
The results of total tau immunoblot using RIPA-insoluble brain lysates were as follows: [formula]
For orientation: In western blotting, separated proteins are transferred to a membrane and probed.

Series [2] is described as follows: Liver microsomal stability, mouse. The series is classed as in vitro ADME. The following applies: 1 µM compound; 0.5 mg/mL microsomes; NADPH; 30 minutes at 37°C. The protocol: (§1) Liver microsomal stability by the compounds prepared according to Examples 1 to 46 was confirmed. Specifically, four types of liver microsomes (human, dog, rat, and mouse each at 0.5 mg/mL), 0.1 M phosphate buffer solution (pH 7.4), and the compounds at 1 µM concentration were added and pre-incubated at 37°C for 5 minutes, and then NADPH generation system solution was added and incubated at 37°C for an additional 30 minutes. Thereafter, an acetonitrile solution containing an internal standard (chloropropamide) was added to terminate the reaction, and after centrifugation for 5 minutes (14,000 rpm, 4°C), the supernatant was injected into an LC-MS/MS system to analyze the substrate drug, thereby evaluating the metabolic stability of 8 compounds.
(§2) The amount of remaining substrate through the reaction was analyzed using a Shimadzu Nexera XR system and TSQ vantage (Thermo). A Kinetex XB-C18 (2.1 × 100 mm, 2.6 µm, particle size; Phenomenex, USA) was used as the HPLC column, and (A) distilled water containing 0.1% formic acid and (B) acetonitrile containing 0.1% formic acid were used as mobile phases. Analyst software (version 1.6.3) and Xcalibur (version 1.6.1) were used for data analysis. The calculated results are shown in Table 5 below: Liver microsomal stability data of novel compounds from […] (human, rat, and mouse).
In general terms: Liver microsomes are vesicles of endoplasmic reticulum, rich in cytochrome P450 enzymes.

Series [3] has as its system Tau-BiFC cells. Kind of series: Cell viability (stained nuclei count) in Tau-BiFC cells. The following applies: @10 µM; Tau-BiFC cell line; Forskolin-only group = 100%. Format: cell-based. The method in brief: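 Tau-BiFC cells were co-treated with compound (1, 3, 10 µM for screening; 0.03–30 µM for IC50) and 30 µM Forskolin for 48 h. BiFC fluorescence was normalised to the Forskolin-only window for aggregation; viability came from Hoechst-stained nuclei counts relative to Forskolin-only (100%). IC50 was derived by nonlinear regression.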

Series [4] is described as follows: Liver microsomal stability, human. The series is classed as in vitro ADME. The following applies: 1 µM compound; 0.5 mg/mL microsomes; NADPH; 30 minutes at 37°C. The protocol:
as §1, §2

T1 sequence (P10636 1-441 isoform P10636-8 P301L): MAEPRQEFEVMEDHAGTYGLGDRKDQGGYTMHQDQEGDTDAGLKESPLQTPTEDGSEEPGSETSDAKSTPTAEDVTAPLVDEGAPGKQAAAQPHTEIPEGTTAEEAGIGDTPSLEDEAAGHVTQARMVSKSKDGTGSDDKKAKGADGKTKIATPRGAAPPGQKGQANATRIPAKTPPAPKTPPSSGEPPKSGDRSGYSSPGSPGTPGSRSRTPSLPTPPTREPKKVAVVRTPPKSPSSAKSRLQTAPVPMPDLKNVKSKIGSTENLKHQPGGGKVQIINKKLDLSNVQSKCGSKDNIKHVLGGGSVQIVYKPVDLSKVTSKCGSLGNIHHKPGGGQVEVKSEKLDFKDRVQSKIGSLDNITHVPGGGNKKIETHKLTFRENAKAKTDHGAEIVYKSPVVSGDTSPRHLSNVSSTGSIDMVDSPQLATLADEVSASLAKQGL

Consider `Cn1c(N2CCOCC2)nc2cc(NN=C(C#N)C#N)ccc21` [Compound 6, (1-methyl-2-morpholino-1H-benzo[d]imidazol-5-yl)carbonohydrazonoyl dicyanide], for which the “total tau immunoblot, insoluble tau aggregate formation” value in series [1] was “inhibition of insoluble tau aggregate formation”. Further, the “Mouse microsomes (% remaining)” value in series [2] amounted to 87.3 % remaining. The “Cell viability (% @10µM)” value in series [3] is reported as 104%. In addition, the “Human microsomes (% remaining)” value in series [4] is listed as 90 % remaining.
For `CC1COCCN1c1nc2ccc(NN=C(C#N)C#N)cc2o1` (stereo not drawn) [Compound 16, (2-(3-methylmorpholino)benzo[d]oxazol-6-yl)carbonohydrazonoyl dicyanide] the same measures were “inhibition of insoluble tau aggregate formation”, 89.5 % remaining, 100% and 79.8 % remaining.
For `N#CC(C#N)=NNc1ccc2nc(N3C4CCC3COC4)oc2c1` [Compound 20, (2-(3-oxa-8-azabicyclo[3.2.1]octan-8-yl)benzo[d]oxazol-6-yl)carbonohydrazonoyl dicyanide] the same measures were “inhibition of insoluble tau aggregate formation”, 95.4 % remaining, 96% and over 100 % remaining.
Regarding `CC(=O)N1CCN(c2nc3ccc(NN=C(C#N)C#N)cc3o2)CC1` [Compound 31, (2-(4-acetylpiperazin-1-yl)benzo[d]oxazol-6-yl)carbonohydrazonoyl dicyanide], in series [2], the “Mouse microsomes (% remaining)” value is over 100 % remaining. Also, in series [3], the “Cell viability (% @10µM)” value stood at 100%. For the same molecule, the “Human microsomes (% remaining)” value in series [4] worked out at 99.9 % remaining.
For `CCn1c(N2CCOCC2)nc2ccc(NN=C(C#N)C#N)cc21` [Compound 32, (1-ethyl-2-morpholino-1H-benzo[d]imidazol-6-yl)carbonohydrazonoyl dicyanide] the same measures were 92.3 % remaining, 98% and 95.5 % remaining.
In the case of `CCn1c(N2CCOCC2)nc2cc(NN=C(C#N)C#N)ccc21` [Compound 33, (1-ethyl-2-morpholino-1H-benzo[d]imidazol-5-yl)carbonohydrazonoyl dicyanide], the “Mouse microsomes (% remaining)” value in series [2] was found to be 89 % remaining. For the same molecule, in series [3], the “Cell viability (% @10µM)” value is 97%. Moreover, the “Human microsomes (% remaining)” value in series [4] was determined as 94.9 % remaining.
For `Cn1c(N2C3CCC2COC3)nc2ccc(NN=C(C#N)C#N)cc21` [Compound 34, (2-(3-oxa-8-azabicyclo[3.2.1]octan-8-yl)-1-methyl-1H-benzo[d]imidazol-6-yl)carbonohydrazonoyl dicyanide] the same measures were 78.2 % remaining, 100% and 88.9 % remaining.
As to `Cn1c(N2C3CCC2COC3)nc2cc(NN=C(C#N)C#N)ccc21` [Compound 35, (2-(3-oxa-8-azabicyclo[3.2.1]octan-8-yl)-1-methyl-1H-benzo[d]imidazol-5-yl)carbonohydrazonoyl dicyanide], the “Mouse microsomes (% remaining)” value in series [2] was 95.1 % remaining. Besides, in series [3], the “Cell viability (% @10µM)” value was 100%. The “Human microsomes (% remaining)” value in series [4] was found to be 94.3 % remaining.
For `N#CC(C#N)=NNc1ccc2nc(NC(=O)N3CCOCC3)sc2c1` [Compound 38, (2-(morpholine-4-carboxamido)benzo[d]thiazol-6-yl)carbonohydrazonoyl dicyanide] the same measures were 86.1 % remaining, 97% and 87.6 % remaining.
For `CC1CN(C(=O)Nc2nc3ccc(NN=C(C#N)C#N)cc3s2)CC(C)O1` (stereo not drawn) [Compound 39, (2-(2,6-dimethylmorpholine-4-carboxamido)benzo[d]thiazol-6-yl)carbonohydrazonoyl dicyanide] the same measures were 88.4 % remaining, 98% and 83.8 % remaining.
For `N#CC(C#N)=NNc1ccc2nc(NC(=O)N3CC4CCC(C3)O4)sc2c1` [Compound 40, (2-(8-oxa-3-azabicyclo[3.2.1]octane-3-carboxamido)benzo[d]thiazol-6-yl)carbonohydrazonoyl dicyanide] the same measures were 93.4 % remaining, 98% and 94.2 % remaining.
In the case of `N#CC(C#N)=NNc1ccc2nc(N3CC[C@@H](F)C3)oc2c1` [Compound 41, (R)-(2-(3-fluoropyrrolidin-1-yl)benzo[d]oxazol-6-yl)carbonohydrazonoyl dicyanide], the “Mouse microsomes (% remaining)” value in series [2] is 65.3 % remaining. In addition, the “Cell viability (% @10µM)” value in series [3] came to 100%. For the same molecule, the “Human microsomes (% remaining)” value in series [4] was 70.0 % remaining.

(Values after patent EP4737445A1, “NOVEL SATURATED HETEROCYCLE-SUBSTITUTED HETEROARYL-CARBONOHYDRAZONOYL DICYANIDE COMPOUND AND USE THEREOF” (Korea Institute of Science and Technology, priority 2023, dated 2025).)
